In US8334236B2, “Ring-fused 2-pyridone derivatives and herbicides” (Kumiai Chemical Industry Co., Ltd., priority 2009, dated 2012):

Each compound was assayed on Echinochloa oryzicola Vasing (assay: Test Example 1: herbicidal effects in paddy field soil treatment). Details: 1000 g active ingredient per hectare, 21st day after treatment.
Format: in vivo
Design: scale not given here
Procedure: (§1) 100-cm^2 plastic pots were filled with paddy field soil. After puddling and leveling, seeds of Echinochloa oryzicola Vasing, Monochoria vaginalis (Burm. f.) Presl var. plantaginea (Roxb.) Solms-Laub., and Scirpus juncoides Roxb. var. ohwianus. T. Koyama were sowed in the pots, and the soil was waterlogged to a water depth of 3 cm. On the next day, a wettable powder formulation prepared according to Formulation Example 1 was diluted with water, and the dilution was added dropwise onto the water surface. The amount of application was an amount equivalent to 1000 g of the active ingredient per hectare. Thereafter, the plants were grown in a greenhouse, and on the 21st day after the treatment, the herbicidal effects were investigated according to the criteria described in Table 71.
(§2) In addition, comparative compound A, comparative compound B, comparative compound C, and comparative compound D in the tables represent Compound Nos. 70, 34, 32, and 31, respectively, as described in EP-283261. The structural formulas of these compounds are presented below.

| Structure (SMILES) | Herbicidal effect index, Echinochloa oryzicola |
| --- | --- |
| COc1ccc(-n2c(=O)c(C(=O)C3=C(O)CCCC3=O)cc3cccnc32)cc1 [II-56] | 5 |
| COc1ccc(-n2c(=O)c(C(=O)C3=C(O)CCCC3=O)cc3ccccc32)cc1 [I-56] | 5 |
| COc1ccc(Cn2c(=O)c(C(=O)C3=C(O)CCCC3=O)cc3cccnc32)cc1 [II-39] | 5 |
| COc1cccc(Cn2c(=O)c(C(=O)C3=C(O)CCCC3=O)cc3cccnc32)c1 [II-38] | 5 |
| O=C1CCCC(O)=C1C(=O)c1cc2cccnc2n(Cc2cccc(Cl)c2)c1=O [II-29] | 5 |
| O=C1CCCC(O)=C1C(=O)c1cc2cccnc2n(Cc2ccccc2Cl)c1=O [II-28] | 5 |
| O=C1CCCC(O)=C1C(=O)c1cc2ccc(C(F)F)nc2n(-c2ccc3c(c2)OCCO3)c1=O [II-442] | 5 |
| CCc1ccc2cc(C(=O)C3=C(O)CCCC3=O)c(=O)n(C)c2n1 [II-434] | 5 |
| O=C1CCCC(O)=C1C(=O)c1cc2ncccc2n(-c2ccccc2)c1=O [III-41] | 4 |
| CCn1c(=O)c(C(=O)C2=C(O)CCCC2=O)cc2cccnc21 [II-3] | 5 |

These compounds were tested on Scirpus juncoides Roxb. var. ohwianus. T. Koyama in the same assay as above. Details: 1000 g active ingredient per hectare, 21st day after treatment.
Format: in vivo
Design: scale not given here
Procedure: as §1, §2

| Structure (SMILES) | Herbicidal effect index, Scirpus juncoides |
| --- | --- |
| COc1ccc(-n2c(=O)c(C(=O)C3=C(O)CCCC3=O)cc3cccnc32)cc1 [II-56] | 5 |
| COc1ccc(-n2c(=O)c(C(=O)C3=C(O)CCCC3=O)cc3ccccc32)cc1 [I-56] | 5 |
| COc1ccc(Cn2c(=O)c(C(=O)C3=C(O)CCCC3=O)cc3cccnc32)cc1 [II-39] | 5 |
| COc1cccc(Cn2c(=O)c(C(=O)C3=C(O)CCCC3=O)cc3cccnc32)c1 [II-38] | 5 |
| O=C1CCCC(O)=C1C(=O)c1cc2cccnc2n(Cc2cccc(Cl)c2)c1=O [II-29] | 5 |
| O=C1CCCC(O)=C1C(=O)c1cc2cccnc2n(Cc2ccccc2Cl)c1=O [II-28] | 5 |
| O=C1CCCC(O)=C1C(=O)c1cc2ccc(C(F)F)nc2n(-c2ccc3c(c2)OCCO3)c1=O [II-442] | 5 |
| CCc1ccc2cc(C(=O)C3=C(O)CCCC3=O)c(=O)n(C)c2n1 [II-434] | 5 |
| O=C1CCCC(O)=C1C(=O)c1cc2ncccc2n(-c2ccccc2)c1=O [III-41] | 4 |
| CCn1c(=O)c(C(=O)C2=C(O)CCCC2=O)cc2cccnc21 [II-3] | 5 |

These compounds were tested on Monochoria vaginalis (Burm. f.) Presl var. plantaginea (Roxb.) Solms-Laub. in the same assay as above. Details: 1000 g active ingredient per hectare, 21st day after treatment.
Format: in vivo
Design: scale not given here
Procedure: as §1, §2

| Structure (SMILES) | Herbicidal effect index, Monochoria vaginalis |
| --- | --- |
| COc1ccc(-n2c(=O)c(C(=O)C3=C(O)CCCC3=O)cc3cccnc32)cc1 [II-56] | 5 |
| COc1ccc(-n2c(=O)c(C(=O)C3=C(O)CCCC3=O)cc3ccccc32)cc1 [I-56] | 5 |
| COc1ccc(Cn2c(=O)c(C(=O)C3=C(O)CCCC3=O)cc3cccnc32)cc1 [II-39] | 5 |
| COc1cccc(Cn2c(=O)c(C(=O)C3=C(O)CCCC3=O)cc3cccnc32)c1 [II-38] | 5 |
| O=C1CCCC(O)=C1C(=O)c1cc2cccnc2n(Cc2cccc(Cl)c2)c1=O [II-29] | 5 |
| O=C1CCCC(O)=C1C(=O)c1cc2cccnc2n(Cc2ccccc2Cl)c1=O [II-28] | 5 |
| O=C1CCCC(O)=C1C(=O)c1cc2ccc(C(F)F)nc2n(-c2ccc3c(c2)OCCO3)c1=O [II-442] | 5 |
| CCc1ccc2cc(C(=O)C3=C(O)CCCC3=O)c(=O)n(C)c2n1 [II-434] | 5 |
| O=C1CCCC(O)=C1C(=O)c1cc2ncccc2n(-c2ccccc2)c1=O [III-41] | 4 |
| CCn1c(=O)c(C(=O)C2=C(O)CCCC2=O)cc2cccnc21 [II-3] | 5 |

Each compound was assayed on Setaria viridis (assay: Test Example 2: herbicidal effects in farmland soil treatment). Details: 1000 g active ingredient per hectare, 21st day after treatment.
Format: in vivo
Design: scale not given here

| Structure (SMILES) | Herbicidal effect index, Setaria viridis |
| --- | --- |
| COc1ccc(-n2c(=O)c(C(=O)C3=C(O)CCCC3=O)cc3cccnc32)cc1 [II-56] | 5 |

The compounds below were run on Setaria viridis (assay: Test Example 3: herbicidal effects in farmland foliar treatment). Details: 1000 g active ingredient per hectare, 14th day after treatment.
Format: in vivo
Design: scale not given here

| Structure (SMILES) | Herbicidal effect index, Setaria viridis |
| --- | --- |
| COc1ccc(-n2c(=O)c(C(=O)C3=C(O)CCCC3=O)cc3cccnc32)cc1 [II-56] | 5 |
| COc1ccc(-n2c(=O)c(C(=O)C3=C(O)CCCC3=O)cc3ccccc32)cc1 [I-56] | 3 |
| COc1ccc(Cn2c(=O)c(C(=O)C3=C(O)CCCC3=O)cc3cccnc32)cc1 [II-39] | 3 |
| O=C1CCCC(O)=C1C(=O)c1cc2cccnc2n(Cc2ccccc2Cl)c1=O [II-28] | 3 |
| CCn1c(=O)c(C(=O)C2=C(O)CCCC2=O)cc2cccnc21 [II-3] | 4 |

The compounds below were run on Echinochloa crus-galli (L.) P. Beauv. var. crus-galli in the same assay as above. Details: 1000 g active ingredient per hectare, 14th day after treatment.
Format: in vivo
Design: scale not given here
Procedure: (§3) 80-cm^2 plastic pots were filled with farmland soil. Seeds of Echinochloa crus-galli (L.) P. Beauv. var. crus-galli, Abutilon theophrasti medicus, and Amaranthus retroflexus were sowed in the pots, and the plants were grown for two weeks in a greenhouse. A wettable powder formulation prepared according to Formulation Example 1 was diluted with water, and the dilution was applied by foliar treatment by spraying with a small sprayer over the whole plant from the upper part, in an amount equivalent to 1000 liters per hectare, such that 1000 g of the active ingredient was applied per hectare. Thereafter, the plants were grown in a greenhouse, and on the 14th day after the treatment, the herbicidal effects were investigated according to the criteria described in Table 71 shown above.

| Structure (SMILES) | Herbicidal effect index, Echinochloa crus-galli |
| --- | --- |
| COc1ccc(-n2c(=O)c(C(=O)C3=C(O)CCCC3=O)cc3cccnc32)cc1 [II-56] | 5 |
| COc1ccc(-n2c(=O)c(C(=O)C3=C(O)CCCC3=O)cc3ccccc32)cc1 [I-56] | 3 |
| COc1ccc(Cn2c(=O)c(C(=O)C3=C(O)CCCC3=O)cc3cccnc32)cc1 [II-39] | 5 |
| O=C1CCCC(O)=C1C(=O)c1cc2cccnc2n(Cc2ccccc2Cl)c1=O [II-28] | 4 |
| CCn1c(=O)c(C(=O)C2=C(O)CCCC2=O)cc2cccnc21 [II-3] | 5 |

The compounds below were run on Amaranthus retroflexus in the same assay as above. Details: 1000 g active ingredient per hectare, 14th day after treatment.
Format: in vivo
Design: scale not given here
Procedure: as §3

| Structure (SMILES) | Herbicidal effect index, Amaranthus retroflexus |
| --- | --- |
| COc1ccc(-n2c(=O)c(C(=O)C3=C(O)CCCC3=O)cc3cccnc32)cc1 [II-56] | 5 |
| COc1ccc(-n2c(=O)c(C(=O)C3=C(O)CCCC3=O)cc3ccccc32)cc1 [I-56] | 5 |
| COc1ccc(Cn2c(=O)c(C(=O)C3=C(O)CCCC3=O)cc3cccnc32)cc1 [II-39] | 5 |
| O=C1CCCC(O)=C1C(=O)c1cc2cccnc2n(Cc2ccccc2Cl)c1=O [II-28] | 5 |
| CCn1c(=O)c(C(=O)C2=C(O)CCCC2=O)cc2cccnc21 [II-3] | 5 |

What follows are compounds tested on Abutilon theophrasti medicus in the same assay as above. Details: 1000 g active ingredient per hectare, 14th day after treatment.
Format: in vivo
Design: scale not given here
Procedure: as §3

| Structure (SMILES) | Herbicidal effect index, Abutilon theoprasti |
| --- | --- |
| COc1ccc(-n2c(=O)c(C(=O)C3=C(O)CCCC3=O)cc3cccnc32)cc1 [II-56] | 5 |
| COc1ccc(-n2c(=O)c(C(=O)C3=C(O)CCCC3=O)cc3ccccc32)cc1 [I-56] | 5 |
| COc1ccc(Cn2c(=O)c(C(=O)C3=C(O)CCCC3=O)cc3cccnc32)cc1 [II-39] | 5 |
| O=C1CCCC(O)=C1C(=O)c1cc2cccnc2n(Cc2ccccc2Cl)c1=O [II-28] | 5 |
| CCn1c(=O)c(C(=O)C2=C(O)CCCC2=O)cc2cccnc21 [II-3] | 5 |

Each compound was assayed on Amaranthus retroflexus (assay: Test Example 2: herbicidal effects in farmland soil treatment). Details: 1000 g active ingredient per hectare, 21st day after treatment.
Format: in vivo
Design: scale not given here
Procedure: as §3, with “of” for “of Echinochloa crus-galli (L.) P. Beauv. var. crus-galli,”, “medicus” for “medicus,”, “soil was covered.” for “the plants were grown for two weeks in a greenhouse.”, “uniformly sprayed on the soil surface” for “applied by foliar treatment by spraying”, “sprayer,” for “sprayer over the whole plant from the upper part,”, “21st” for “14th”

| Structure (SMILES) | Herbicidal effect index, Amaranthus retroflexus |
| --- | --- |
| COc1ccc(-n2c(=O)c(C(=O)C3=C(O)CCCC3=O)cc3cccnc32)cc1 [II-56] | 5 |

Each compound was assayed on Abutilon theophrasti medicus in the same assay as above. Details: 1000 g active ingredient per hectare, 21st day after treatment.
Format: in vivo
Design: scale not given here
Procedure: as §3, with “of” for “of Echinochloa crus-galli (L.) P. Beauv. var. crus-galli,”, “medicus” for “medicus,”, “soil was covered.” for “the plants were grown for two weeks in a greenhouse.”, “uniformly sprayed on the soil surface” for “applied by foliar treatment by spraying”, “sprayer,” for “sprayer over the whole plant from the upper part,”, “21st” for “14th”

| Structure (SMILES) | Herbicidal effect index, Abutilon thophrasti |
| --- | --- |
| COc1ccc(-n2c(=O)c(C(=O)C3=C(O)CCCC3=O)cc3cccnc32)cc1 [II-56] | 5 |

What follows are compounds tested on Echinochloa crus-galli in the same assay as above. Details: 1000 g active ingredient per hectare, 21st day after treatment.
Format: in vivo
Design: scale not given here

| Structure (SMILES) | Herbicidal effect index, Echinochloa crus-galli |
| --- | --- |
| COc1ccc(-n2c(=O)c(C(=O)C3=C(O)CCCC3=O)cc3cccnc32)cc1 [II-56] | 5 |
